Results on six compounds are retold here after PMC12309968 (iScience, 2025).

pKd: −log10 of the molar value. ≈ marks a conversion by molar mass, not a printed value. Entries after “also recorded” stand apart in the source; their conditions may differ. Where two headings read alike, the source gives them in different places. Positions of bridges follow the written chain, without caps; N, C: chain ends. Non-standard residues stand in square brackets, D forms with d. Residues, ends and D or L forms follow the SMILES beside them. *: point of attachment. Octanoyl = CCCCCCCC(=O)*; Dab = NCC[C@H](N)C(=O)O; Abu = CC[C@H](N)C(=O)O

Data set [1] deals with E. coli SOS response. The settings on record: cited from earlier work.
Data set [2] concerns human erythrocytes.
Data set [3] deals with Stx2a binding to TLR4-expressing Gb3Cer-lacking human neutrophils. The settings on record: cited from earlier work.
For data set [4], the system named is neutrophil/platelet aggregates. Format: cell-based, human.
Data set [5] has as its system Raji cells (Gb3Cer-expressing). The settings on record: cited from earlier work.
Data set [6] relates to human renal tubular cells. The conditions noted are these: cited from earlier work.
Data set [7] has as its system interaction between LPS and TLR4. The settings on record: cited from earlier work.
Data set [8] relates to SOS response. The settings on record: cited from earlier work.
Data set [9] relates to monocyte/platelet aggregates. Format: cell-based, human.
Data set [10] has as its system E. coli. The settings on record: cited from earlier work.
Data set [11] relates to cynomolgus monkey. The conditions noted are these: in vivo; cited from earlier work.
For data set [12], the system named is Shigella. The settings on record: cited from earlier work.
Data set [13] deals with Stx2a binding to TLR4-expressing Gb3Cer-lacking human neutrophils.
For data set [14], the system named is human leukocytes.
For data set [15] the following is noted: in vivo; cited from earlier work.
In data set [16] the target is lactate dehydrogenase A (LDH-A), tetrameric form (Homo sapiens, UniProt P00338). In words: biochemical. Format: binding.
Data set [17] concerns CD-1 mice. The settings on record: mouse, in vivo, iv.
In data set [18] the target is Stx2a (Escherichia phage 933W, UniProt P09385+P09386). In words: biochemical. Format: binding, E. coli (C600-933W strain).

Consider `CNC(C)C1CCC(N)C(OC2C(N)CC(N)C(OC3OCC(C)(O)C(NC)C3O)C2O)O1` (stereo not drawn) [gentamicin], for which, in [1], the MIC/SIC ratio is given as 1.8 and the “SOS-inducing action” value is listed as “poor”.

On to Triton X-100, for which the “hemolysis” value in [2] was “no hemolysis occurred, unlike treatment with Triton X-100, chosen as a positive control”.

Regarding polymyxin B, in [3], the “IC50 in inhibiting the binding of Stx2a to human neutrophils” value is 3.5 µg/mL and the “effect on Stx2a/TLR4 interactions, binding of Stx2a to leukocytes” value is given as “effectively impairs the Stx2a/TLR4 interactions; also recorded: does block the binding of Stx2a to leukocytes at μg/mL concentrations that are also highly bactericidal”. The “effect on neutrophil/platelet aggregates” value in [4] is “ineffective at these concentrations”. Besides, in [5], the “lack of protection of Gb3Cer-expressing Raji cells from Stx2a” value is recorded as “as previously shown with polymyxin B”. In data set [6], the “IC50, cytotoxicity to human renal tubular cells” value was 18 µg/mL. Further, the “block of LPS/TLR4 interaction” value in data set [7] was “known to block the interaction between the bacterial endotoxin (lipopolysaccharide [LPS]) and TLR4”. The “concentration eliciting the SOS response” value in data set [8] was “higher than 1 μg/mL”. Besides, in data set [9], the “effect on monocyte/platelet aggregates” value is on record as “ineffective at these concentrations”. Also, the MIC in data set [10] was 1 µg/mL. The “tolerability” value in [11] was “had to be euthanized because of severe nephrotoxicity”. The “concentration inducing release of considerable amounts of Stx by Shigella” value in [12] is “higher than 1 μg/mL”.

Consider `CO[C@@]12[C@H](COC(N)=O)C3=C(C(=O)C(C)=C(N)C3=O)N1C[C@@H]1N[C@@H]12` [mitomycin C], for which, in data set [1], the MIC/SIC ratio is 1.4 and the “SOS-inducing action” value was “strong SOS-inducing actions”.

For `O=C(O)c1cn(C2CC2)c2cc(N3CCNCC3)c(F)cc2c1=O` [ciprofloxacin], in data set [1], the MIC/SIC ratio is given as 8 and the “SOS-inducing action” value is “frequently used as a model antibiotic inducing the SOS response”.

Take `CCCCCCCC(=O)N[C@@H](CCN)C(=O)N[C@H](C(=O)N[C@@H](C(=O)N[C@H]1CCNC(=O)[C@H]([C@@H](C)O)NC(=O)[C@H](CCN)NC(=O)[C@H](CC)NC(=O)[C@H](CC(C)C)NC(=O)[C@@H](Cc2ccccc2)NC(=O)[C@H](CCN)NC1=O)[C@H](C)O)[C@@H](C)O` [NAB815] (Octanoyl-[Dab]T[dT][Dab][Dab][dF]L[Abu][Dab]T; lactam 4-C): in [13], the “IC50 in inhibiting the binding of Stx2a to human neutrophils” value was 0.057 µg/mL. In data set [14], the “necrotic leukocytes (7-AAD+)” value is “the number of necrotic cells was negligible”. In addition, in data set [6], the “IC50, cytotoxicity to human renal tubular cells” value was 334 µg/mL (≈ 284 µM) and the “cytotoxicity lower than that of polymyxin B (fold)” value is on record as “approximately 20 times”. Further, the “excretion into urine relative to polymyxin B” value in data set [15] was “approximately 10 times”. The pKd in data set [16] is 5.00. Further, in [17], the “serum creatinine and urea” value is “No changes in serum creatinine and urea were found”. The “hemolysis” value in data set [2] is “no hemolysis occurred”. Besides, in data set [11], the “serum creatinine, blood urea nitrogen, urinary biomarkers” value is reported as “no significant increase in serum creatinine, blood urea nitrogen, or in the urinary biomarkers tested” and the “tolerability” value is reported as “well tolerated”. In [18], the pKd is 7.30 and the “maximum reduction (quenching) of Stx2a fluorescence” value is listed as “approximately 10%”.

As usually defined, the MIC is the lowest concentration found to suppress growth. Broadly, the pKd is the Kd on a negative log10 scale, so that one unit is a factor of ten.
